{
  "source": "patent US7341867B2",
  "about": "“Human preprotachykinin gene promoter” (University of Medicine & Dentistry of New Jersey, priority 1999, dated 2008)",
  "format_in_all_cases": "cell-based, human",
  "key": {"[1]": {"test_system": "SP-IR", "assay": "ELISA of immunoreactive-SP (SP-IR) in stroma cell extracts", "method": "Competitive ELISA quantitated SP-IR in supernatants from breast cancer cell cultures that were 80% confluent. Cell-free supernatants were stored in siliconized tubes at −70° C. until ready to be assayed. Streptavidin, […] in distilled water, was added to Immulon 96-well plates (Dynatech Laboratories Inc., Chantilly, Va.). Streptavidin was allowed to dry at 37° C. After this, wells were blocked with 5% nonfat dry milk for 2 hr at room temperature and then washed with PBS containing 0.1% Tween-20 (PBST). Chiron Mimotopes (Emeryville, Calif.) synthesized biotinylated-SP, with spacer arm. Stock solution was diluted in 0.1% (v/v) acetic acid at 5 mg/ml, aliquoted in siliconized tubes and stored at −70° C. Working solution was diluted at 750 ng/ml with PBS containing 0.1% (w/v) BSA and 0.1% (w/v) sodium azide. Biotinylated-SP ([…]) was added to wells and plates incubated for 1 hr at room temperature. Plates were washed (×4) with PBST. Competition by the […] and soluble SP for anti-SP forms the basis for the next step. Equal volume (50 μl) of optimum rabbit anti-SP (1/15,000), and unknown or standard solution were added to wells. Plates were incubated at room temperature for 1 hr. Each unknown was assayed in triplicate as undiluted and three serial dilutions. Bound anti-SP was detected by incubating for 1 hr with optimum (150 ng/ml) AP-goat antirabbit IgG. Color was developed with Sigma 104 phosphatase substrate as described (Rameshwar, P. et al. (1996), Blood 88, 98-106). A standard curve was developed with O.D. (405 nm) versus 12 serial dilutions of standard SP that ranged from 100 to 0.08 ng/ml. […]\nIn the next set of experiments, we investigated the possibility for an indirect mechanism in the activation of PPT-I promoter. […] Since SCF induces endogenous PPT-I (Table 6), we used ELISA (Singh, D. et al, supra) to quantitate the level of its major translation product, immunoreactive-SP (SP-IR), in stroma cell extracts. […] To address this, we incubated the SCF-stimulated cells with 10 nM of an NK-1-specific antagonist (CP-99,994) and then quantitated luciferase activity. […]"}, "[2]": {"test_system": "PPT-I promoter (Upstream/N0)", "assay": "Luciferase reporter gene assay, pGL3-Upstream/N0 in transfected bone marrow stroma", "method": "(§1) Transfected bone marrow stroma was stimulated with optimal concentrations of IL-1α (2.5 ng/ml), SCF (8 ng/ml) or 1 nM substance P, SP (Sigma, St Louis, Mo.) and/or 10 nM NK-1-specific antagonist (CP-99,994) in α-MEM with 2% FCS. In other embodiments, bone marrow stroma was stimulated with 5 μg/ml forskolin, FK (Sigma) for 2 and 5 h. SCF was purchased from R&D Systems (Minneapolis, Minn.) and IL-1α was obtained from Hoffman LaRoche, Nutley, N.J. Pfizer, Inc. (Groton, Conn.) provided CP-99,994. Substance P and CP-99,994 were dissolved and stored as described in Ramewshwar et al (1996), supra. Optimal parameters were determined with dose-response and time-course studies.\npGL3-basic with inserts of different fragments from PPT-I-p1.2 was co-transfected with pβ-gal-Control (0.5 μg each) in 80% confluent bone marrow stroma using SuperFect (Qiagen, Valencia, Calif.). After 48 h cells were scraped in 30 μl 250 mM Tris (pH 8.0) and then lysed by freezing and thawing in a dry ice/ethanol bath. Cell-free lysates (24 μl) were obtained by centrifugation at 15,000 g for 5 min at 4° C. and then diluted with 5× cell culture lysis buffer (Promega). Luciferase and β-gal activities were quantitated with 10 μl of lysates using Luciferase assay system (Promega) and Luminescent β-galactosidase detection kit II (Clontech) respectively. In the experimental model, the ratios of Luciferase/β-gal in cells transfected with vector alone ranged from 0.18 to 0.19 and was normalized to 1. Because cytokines induce the promoter upstream of β-gal, in cytokine-stimulated cells, luciferase activity was presented/mg of total protein the levels normalized with stroma transfected with vector alone. Total protein was determined using standard techniquees well known in the art.\nMutations were performed with a mutagenesis kit (Stratagene, La Jolla, Calif.). The desired mutant sequences (Table 1) were synthesized within 40 nt in the forward and reverse directions and then used in PCR with pGL3 containing wild type Upstream/N0. After PCR amplification, mutation was verified by identification of Apa L1 within CRE-like mutant and the loss of Xho 1 in CRE mutant."}, "[3]": {"test_system": "β-PPT-I mRNA", "assay": "Quantitative RT-PCR in stimulated bone marrow stroma", "method": "(§2) In a second embodiment of the present invention, bone marrow stroma was stimulated in serum-free α-MEM supplemented with Insulin-transferrin-selenium-A (Life Technologies). Quantitative RT-PCR with total RNA, extracted from bone marrow stroma and construction of standard DNA was performed as described in Singh, D., supra. The end sequences of the standard DNA contained gene-specific sequences that are complementary for the reaction primers. The primers in the standard DNA flank neutral DNA. Total RNA (2 μg) was reverse transcribed and 200 ng cDNA used in PCR with specific oligonucleotide primers for PPT-I, NK-1 or NK-2. Standard DNA, log10 fold dilutions, ranged between 10^−2 to 10^−6 attomole/L. Each unknown sample was assayed with a particular concentration of standard DNA in the same reaction tube. PCR products (10 μl) were separated by electrophoresis on 1.5% agarose containing ethidium bromide and the densities of the DNA bands quantitated with a Fluorimager (Molecular Dynamics, Sunnyvale, Calif.) and then analyzed with ImageQuant software. A standard curve was established for each unknown sample: band densities of unknown/standard DNA vs. Log10 standard DNA concentration was used to determine the concentration of RNA molecules in the unknown samples. The concentration of the unknown sample was selected at the concentration in which the ratio of the unknown and standard were equivalent.\nas §1\nConfluent bone marrow stroma was stimulated with 25 ng/ml rhIL-1α or 10 ng/ml SCF for 24 h. Poly A RNA was isolated from total RNA by selection (2×) on oligo-dT cellulose (Life Technologies). The cellulose column was washed once with 10 mM Tris, pH 7.0; 0.5 M NaCl; […] and once with 10 mM Tris, pH 7.0; 0.2 M NaCl; […]. Poly A RNA was eluted with 10 mM Tris (pH 7.0) and […]. RNA was precipitated by standard techniques and then resuspended in DEPC-treated water. The purity was verified by the absence of rRNA."}, "[4]": {"test_system": "NK-1 mRNA", "assay": "Quantitative RT-PCR in stimulated bone marrow stroma", "method": "as §2, §1"}, "[5]": {"test_system": "NK-2 mRNA", "assay": "Quantitative RT-PCR in stimulated bone marrow stroma", "conditions": "BM stroma; 8 ng/ml SCF or 2.5 ng/ml IL-1a; 16 h; serum-free α-MEM", "method": "as §2, §1"}, "[6]": {"conditions": "stroma stimulated with SCF, five experiments"}, "[7]": {"conditions": "BM stroma, 8 ng/ml SCF or 2.5 ng/ml IL-1a, 16 h, serum-free α-MEM"}},
  "data": [
    {"substance": "SCF: stem cell factor, cytokine purchased from R&D Systems", "values": [
      {"measurement": "SP-IR in stromal extracts", "setting": "[1]; SCF-stimulated, after 36 h, n=5, ±SD", "result": "115 ± 8", "unit": "pg/mL"},
      {"measurement": "SP-IR at 4 h post-transfection", "setting": "[1]; [6]", "result": "122 ± 14", "unit": "pg/mL"},
      {"measurement": "SP-IR at time 0 post-transfection", "setting": "[1]; [6]", "result": "110 ± 18", "unit": "pg/mL"},
      {"measurement": "increase in luciferase activities compared to unstimulated cells", "setting": "[2]; pGL3-Upstream/N0 wild type, optimal SCF or IL-1a, 10 h", "result": 4, "unit": "fold"},
      {"measurement": "induction of luciferase in cells transfected with the double mutants", "setting": "[2]; pGL3-Upstream/N0 with mutant CRE and CRE-like", "result": "no significant induction"},
      {"measurement": "β-PPT-I (molecules/μg total RNA)", "setting": "[3]; BM stroma, 1 nM SP, 8 ng/ml SCF and/or 10 nM CP-99,994, 16 h", "result": "1324 ± 76", "unit": "molecules/μg total RNA"},
      {"measurement": "β-PPT-I mRNA", "setting": "[3]; [7]", "result": "1336 ± 134", "unit": "Molecules/μg total RNA"},
      {"measurement": "molecules of β-PPT-I/μg poly A", "setting": "[3]; poly A RNA from stroma stimulated with 25 ng/ml rhIL-1α or 10 ng/ml SCF for 24 h, n=6", "result": "134,340±545 molecules of β-PPT-I/μg poly A"},
      {"measurement": "NK-1 mRNA", "setting": "[4]; [7]", "result": "5253 ± 170", "unit": "Molecules/μg total RNA"},
      {"measurement": "NK-1 induced", "setting": "[4]; optimal SCF for 36 h", "result": "5052±50", "unit": "molecules/μg total RNA"},
      {"measurement": "NK-2 mRNA", "setting": "[5]", "result": "273 ± 19", "unit": "Molecules/μg total RNA"}
    ]}
  ]
}
